Consider 21 molecules from ChEMBL document CHEMBL1140493, “Quantitative structure-activity relationship studies for prediction of antimicrobial activity of synthesized 2,4-hexadienoic acid derivatives” (Bioorg Med Chem Lett, 2007).

As a reminder, the MIC is the lowest concentration that inhibits growth of the organism. The logP is a log measure of how a compound divides between an organic and an aqueous phase.

One data set has as its system Aspergillus niger. Kind of data set: Antifungal activity against Aspergillus niger after 7 days by twofold serial dilution method. Format: functional. As to conditions: 168 h, read-out: -Log MIC.
Data set [1] is described as follows: Partition coefficient, log P of the compound. As to conditions: octanol/water.
In another data set the test system is Bacillus subtilis. Kind of data set: Antimicrobial activity against Bacillus subtilis after 24 hrs by twofold serial dilution method. Format: functional. To be noted: read-out: -Log MIC.
Another data set has as its system Staphylococcus aureus. Kind of data set: Antimicrobial activity against Staphylococcus aureus after 24 hrs by twofold serial dilution method. Format: functional. To be noted: read-out: -Log MIC.
The next data set has as its system Escherichia coli. Kind of data set: Antimicrobial activity against Escherichia coli after 24 hrs by twofold serial dilution method. Format: functional. As to conditions: read-out: -Log MIC.
Another data set deals with Candida albicans. Kind of data set: Antifungal activity against Candida albicans after 2 days by twofold serial dilution method. Format: functional. As to conditions: 48 h, read-out: -Log MIC.

≈ marks a conversion by molar mass, not a printed value.

Regarding `C/C=C/C=C/C(=O)Nc1cccc(O)c1`, the MIC worked out at 69.2 µM (≈ 14.1 µg/mL) in the data set with Aspergillus niger; 53.7 µM (≈ 10.9 µg/mL) in the data set with Bacillus subtilis; 89.1 µM (≈ 18.1 µg/mL) in the data set on Staphylococcus aureus; 100 µM (≈ 20.3 µg/mL) in the data set on Escherichia coli; 53.7 µM (≈ 10.9 µg/mL) with Candida albicans. Besides, the logP in data set [1] is 2.25.
Regarding `C/C=C/C=C/C(=O)N(C)C`, the MIC in the data set on Aspergillus niger amounted to 79.4 µM (≈ 11.1 µg/mL); with Bacillus subtilis, 72.4 µM (≈ 10.1 µg/mL); in the data set on Staphylococcus aureus, 79.4 µM (≈ 11.1 µg/mL); in the data set on Candida albicans it was 63.1 µM (≈ 8.78 µg/mL). The logP in data set [1] came to 1.1.
Consider `C/C=C/C=C/C(=O)Nc1ccccc1N`, for which the MIC in the data set with Aspergillus niger amounted to 69.2 µM (≈ 14 µg/mL); in the data set with Bacillus subtilis, 49 µM (≈ 9.91 µg/mL); in the data set with Staphylococcus aureus it was 63.1 µM (≈ 12.8 µg/mL); with Escherichia coli, 69.2 µM (≈ 14 µg/mL); in the data set with Candida albicans it was 61.7 µM (≈ 12.5 µg/mL). The same molecule registered a logP in data set [1] of 1.75.
For the molecule `C/C=C/C=C/C(=O)N(c1ccccc1)c1ccccc1`, the MIC came out at 39.8 µM (≈ 10.5 µg/mL) in the data set with Aspergillus niger; 38 µM (≈ 10 µg/mL) in the data set with Bacillus subtilis; 50.1 µM (≈ 13.2 µg/mL) in the data set with Staphylococcus aureus; 58.9 µM (≈ 15.5 µg/mL) with Escherichia coli; 47.9 µM (≈ 12.6 µg/mL) with Candida albicans. The molecule also returned a logP in data set [1] of 4.46.
As to `C/C=C/C=C/C(=O)Nc1ccc(Br)cc1`, the MIC in the data set on Aspergillus niger worked out at 50.1 µM (≈ 13.3 µg/mL); in the data set on Bacillus subtilis, 47.9 µM (≈ 12.7 µg/mL); with Staphylococcus aureus, 37.2 µM (≈ 9.9 µg/mL); in the data set with Escherichia coli, 79.4 µM (≈ 21.1 µg/mL); in the data set on Candida albicans, 46.8 µM (≈ 12.5 µg/mL). In data set [1], this molecule registered a logP of 3.32.
As to `C/C=C/C=C/C(=O)Nc1ccc([N+](=O)[O-])cc1`, the MIC in the data set on Aspergillus niger stood at 53.7 µM (≈ 12.5 µg/mL); in the data set on Bacillus subtilis, 38.9 µM (≈ 9.03 µg/mL); in the data set with Staphylococcus aureus, 60.3 µM (≈ 14 µg/mL); in the data set on Escherichia coli, 60.3 µM (≈ 14 µg/mL); in the data set on Candida albicans, 53.7 µM (≈ 12.5 µg/mL). For the same molecule, the logP in data set [1] turned out to be 2.49.
Consider `C/C=C/C=C/C(=O)NC`, for which the MIC with Aspergillus niger is 79.4 µM (≈ 9.94 µg/mL); in the data set with Bacillus subtilis it was 79.4 µM (≈ 9.94 µg/mL); in the data set on Staphylococcus aureus it was 100 µM (≈ 12.5 µg/mL); in the data set on Candida albicans it was 79.4 µM (≈ 9.94 µg/mL). Moreover, in data set [1], the logP came to 0.85.
With `C/C=C/C=C/C(=O)OCCCCCCC`, the MIC stood at 58.9 µM (≈ 12.4 µg/mL) in the data set with Aspergillus niger; 50.1 µM (≈ 10.5 µg/mL) in the data set with Bacillus subtilis; 58.9 µM (≈ 12.4 µg/mL) with Staphylococcus aureus; 79.4 µM (≈ 16.7 µg/mL) in the data set on Escherichia coli; 58.9 µM (≈ 12.4 µg/mL) in the data set with Candida albicans. This molecule yielded a logP in data set [1] of 3.9.
Turning to `C/C=C/C=C/C(=O)OCCCC`, the MIC in the data set on Aspergillus niger turned out to be 74.1 µM (≈ 12.5 µg/mL); in the data set with Bacillus subtilis, 74.1 µM (≈ 12.5 µg/mL); in the data set on Staphylococcus aureus, 100 µM (≈ 16.8 µg/mL); with Candida albicans it was 74.1 µM (≈ 12.5 µg/mL). Besides, the logP in data set [1] came to 2.71.
For `C/C=C/C=C/C(=O)NCc1ccccc1`, the MIC with Aspergillus niger worked out at 61.7 µM (≈ 12.4 µg/mL); in the data set with Bacillus subtilis, 61.7 µM (≈ 12.4 µg/mL); with Staphylococcus aureus, 70.8 µM (≈ 14.2 µg/mL); in the data set with Escherichia coli, 100 µM (≈ 20.1 µg/mL); in the data set with Candida albicans it was 61.7 µM (≈ 12.4 µg/mL). In addition, the logP in data set [1] came to 2.63.
`C/C=C/C=C/C(=O)Oc1cccc2cccnc12`: the MIC stood at 38 µM (≈ 9.09 µg/mL) with Aspergillus niger; 12.9 µM (≈ 3.09 µg/mL) in the data set on Bacillus subtilis; 12.9 µM (≈ 3.09 µg/mL) with Staphylococcus aureus; 12.9 µM (≈ 3.09 µg/mL) in the data set with Escherichia coli; 52.5 µM (≈ 12.6 µg/mL) in the data set on Candida albicans. For the same molecule, the logP in data set [1] was 3.27.
Regarding `C/C=C/C=C/C(=O)OCCCCC`, the MIC was determined as 69.2 µM (≈ 12.6 µg/mL) in the data set with Aspergillus niger; 63.1 µM (≈ 11.5 µg/mL) with Bacillus subtilis; 79.4 µM (≈ 14.5 µg/mL) in the data set with Staphylococcus aureus; 100 µM (≈ 18.2 µg/mL) in the data set on Escherichia coli; 50.1 µM (≈ 9.13 µg/mL) with Candida albicans. The molecule further came in with a logP in data set [1] of 3.1.
For `C/C=C/C=C/C(=O)OCC(C)C`, the minimal inhibitory concentration (MIC) with Aspergillus niger came out at 63.1 µM (≈ 10.6 µg/mL); in the data set on Bacillus subtilis, 74.1 µM (≈ 12.5 µg/mL); in the data set on Staphylococcus aureus it was 100 µM (≈ 16.8 µg/mL); in the data set with Candida albicans, 74.1 µM (≈ 12.5 µg/mL). The same molecule displayed a log partition coefficient (logP) in data set [1] of 2.71.
For the molecule `C/C=C/C=C/C(=O)N1CCOCC1`, the MIC in the data set with Aspergillus niger was 79.4 µM (≈ 14.4 µg/mL); with Bacillus subtilis, 55 µM (≈ 9.97 µg/mL); in the data set on Staphylococcus aureus, 69.2 µM (≈ 12.5 µg/mL); with Candida albicans it was 63.1 µM (≈ 11.4 µg/mL). In data set [1], the logP is 0.75.
As for `C/C=C/C=C/C(=O)Oc1ccccc1`, the MIC in the data set on Aspergillus niger was found to be 47.9 µM (≈ 9.02 µg/mL); in the data set on Bacillus subtilis it was 58.9 µM (≈ 11.1 µg/mL); in the data set with Staphylococcus aureus, 95.5 µM (≈ 18 µg/mL); with Escherichia coli, 74.1 µM (≈ 13.9 µg/mL); in the data set on Candida albicans, 56.2 µM (≈ 10.6 µg/mL). In data set [1], the logP was 3.18.
Regarding `C/C=C/C=C/C(=O)Nc1ccc(Cl)cc1`, the minimum inhibitory concentration (MIC) in the data set on Aspergillus niger turned out to be 50.1 µM (≈ 11.1 µg/mL); in the data set with Bacillus subtilis, 44.7 µM (≈ 9.91 µg/mL); with Staphylococcus aureus, 63.1 µM (≈ 14 µg/mL); in the data set with Escherichia coli it was 72.4 µM (≈ 16.1 µg/mL); in the data set with Candida albicans, 50.1 µM (≈ 11.1 µg/mL). The molecule also returned a lipophilicity (logP) in data set [1] of 3.05.
`C=CCOC(=O)/C=C/C=C/C`: the MIC with Aspergillus niger was determined as 79.4 µM (≈ 12.1 µg/mL); with Bacillus subtilis, 79.4 µM (≈ 12.1 µg/mL); in the data set with Candida albicans, 81.3 µM (≈ 12.4 µg/mL). Also, in data set [1], the logP came to 2.24.
Regarding `C/C=C/C=C/C(=O)N(CCO)CCO`, the logP in data set [1] amounted to 0.21. In addition, the MIC in the data set with Bacillus subtilis turned out to be 63.1 µM (≈ 12.6 µg/mL); in the data set on Staphylococcus aureus it was 79.4 µM (≈ 15.8 µg/mL); in the data set on Escherichia coli, 91.2 µM (≈ 18.2 µg/mL); in the data set on Candida albicans, 50.1 µM (≈ 9.98 µg/mL).
Consider `C/C=C/C=C/C(=O)N1CCCCC1`, for which the MIC in the data set with Aspergillus niger worked out at 63.1 µM (≈ 11.3 µg/mL); with Bacillus subtilis, 61.7 µM (≈ 11.1 µg/mL); in the data set with Staphylococcus aureus, 77.6 µM (≈ 13.9 µg/mL); in the data set with Candida albicans, 69.2 µM (≈ 12.4 µg/mL). The same molecule returned a log partition coefficient (logP) in data set [1] of 1.82.
`C/C=C/C=C/C(=O)Nc1ccccc1`: the minimal inhibitory concentration (MIC) in the data set on Aspergillus niger was found to be 74.1 µM (≈ 13.9 µg/mL); in the data set with Bacillus subtilis, 66.1 µM (≈ 12.4 µg/mL); in the data set with Candida albicans it was 66.1 µM (≈ 12.4 µg/mL). The logP in data set [1] came out at 2.53.
For the molecule `C/C=C/C=C/C(=O)NCCC`, the MIC with Aspergillus niger turned out to be 100 µM (≈ 15.3 µg/mL); in the data set with Bacillus subtilis, 72.4 µM (≈ 11.1 µg/mL); in the data set with Staphylococcus aureus, 100 µM (≈ 15.3 µg/mL); in the data set with Candida albicans, 81.3 µM (≈ 12.5 µg/mL). Further, the logP in data set [1] is 1.66.
